Laboratory results published in patent publication US9271993B2, “Treatment of bacterial infectious diseases” (priority 2010, dated 2016).
Converted amounts (≈) assume the structure as drawn. Like-named read-outs stand apart in the source and are kept apart here.

Experiments:
bacterial ribosomes = test: Ribosomal drug susceptibility (MIC) of recombinant bacteria; parameters: MIC, bacterial ribosomes: unit not given beside the values; conditions: for MIC, wild type bacteria: Table 10
mitohybrid ribosomes = test: as above; parameters: MIC, mitohybrid ribosomes: unit not given beside the values; conditions: for MIC, bacteria with mitohybrid ribosome: Table 10
cytohybrid ribosomes = test: as above; parameters: MIC, cytohybrid ribosomes: unit not given beside the values; conditions: for MIC, bacteria with cytohybrid ribosome: Table 10
E. coli = test: MIC against gram-negative bacteria; format: cell-based
Description: Agents Chemother. 2003, 47:1496-1502.

[1] = system: clinical methicillin resistant Staphylococcus aureus (MRSA) isolates; test: MIC against clinical MRSA isolates, LB microdilution assay
Protocol: Activity was assessed by determination of minimal inhibitory concentrations (MIC), as described in Pfister et al., Antimicrob. […] Cultures from single colonies were grown in LB medium and used for MIC tests in a microtiter plate format. Starting cultures contained 200 μl of bacterial cells at an optical density of 0.025 at 600 nm, and the respective drug was added in twofold series of dilution.

[2] = system: Cochlear explants from newborn mice; test: Cochleatoxicity in vitro, hair cell loss in cochlear explants; format: cell-based
Protocol: FIG. 1: Cochleatoxicity in vitro
(a) Dose-response relationship of drug-induced hair cell loss in cochlear explants. Hair cell loss was quantified along the entire length of the explant and plotted against drug concentration. %=% outer hair cells missing.
Cochlear explants from newborn mice were treated with 0.5 mM aminoglycoside compound for 24 h; subsequently hair cell damage was assessed by epifluorescence microscopy.

[3] = Escherichia coli, E. coli AG02, clin. isol (Gm^S), read-out: MIC
[4] = Escherichia coli, E. coli AG03, clin. isol (Gm^R), read-out: MIC
[5] = Escherichia coli, E. coli AG06, BM13, read-out: MIC
[6] = Escherichia coli, E. coli AG07, BM13/pIP135, resistance mechanism AAC(3), read-out: MIC
[7] = Escherichia coli, E. coli AG08, BM13/pIP055, resistance mechanism ANT(2″), read-out: MIC
[8] = Escherichia coli, E. coli AG09, AAC(6′)-1B, resistance mechanism AAC(6′), read-out: MIC
[9] = Escherichia coli, E. coli AG36, HB101/pAT197, resistance mechanism ANT(4′), read-out: MIC
[10] = Escherichia coli, E. coli AG37, HB101/pAG21-1, resistance mechanism APH(3′), read-out: MIC
[11] = Staphylococcus aureus, MRSA, MRSA AG038, strain 70-26S Gm^S
[12] = Staphylococcus aureus, MRSA, MRSA AG041, strain 98-25S Gm^S
[13] = Staphylococcus aureus, MRSA, MRSA AG043, strain 01-08R Gm^R
[14] = Staphylococcus aureus, MRSA, MRSA AG044, strain 07-12R Gm^R
[15] = Staphylococcus aureus, MRSA, MRSA AG045, strain 08-12R Gm^R
[16] = Staphylococcus aureus, MRSA, MRSA AG053, strain 56-06R Gm^R

## CNC1C(OC2OC(CO)C(NC(=O)C(O)CCN)C(O)C2O)OC2CC(N)C(OC3C(N)CC(N)C(O)C3O)OC2C1O [ETH 105, 4″-N-[(2S)-4-Amino-2-hydroxybutyryl]apramycin]
Bacterial ribosomes
  MIC, wild type bacteria: 4.0 µg/mL
Mitohybrid ribosomes
  MIC, bacteria with mitohybrid ribosome: >256.0 µg/mL
Cytohybrid ribosomes
  MIC, bacteria with cytohybrid ribosome: >256.0 µg/mL

## CC(=O)O.CC(=O)O.CC(=O)O.CC(=O)O.CNC1C(OC2OC(CO)C(N)C(O)C2O)OC2CC(N)C(OC3C(N)CC(NC(=O)C(O)CCN)C(O)C3O)OC2C1O [ETH 102, 1-N-[(2S)-4-Amino-2-hydroxybutyryl]apramycin tetraacetate]
Bacterial ribosomes
  MIC, wild type bacteria: 4.0 µg/mL
Mitohybrid ribosomes
  MIC, bacteria with mitohybrid ribosome: >256.0 µg/mL
Cytohybrid ribosomes
  MIC, bacteria with cytohybrid ribosome: >256.0 µg/mL

## CC(=O)O.CC(=O)O.CC(=O)O.CC(=O)O.CN[C@@H]1[C@@H](O[C@H]2O[C@H](CO)[C@@H](N)[C@H](O)[C@H]2O)O[C@H]2C[C@@H](NC(=O)[C@@H](O)CCN)[C@@H](O[C@H]3[C@H](O)[C@@H](O)[C@H](N)C[C@@H]3N)O[C@@H]2[C@@H]1O [ETH 100, 2′-N-[(2S)-4-Amino-2-hydroxybutyryl]apramycin tetraacetate]
Bacterial ribosomes
  MIC, wild type bacteria: 2.0 to 4.0 µg/mL
Mitohybrid ribosomes
  MIC, bacteria with mitohybrid ribosome: >256.0 µg/mL
Cytohybrid ribosomes
  MIC, bacteria with cytohybrid ribosome: >256.0 µg/mL

## CN[C@@H]1[C@@H](O)[C@@H](O[C@@H]2[C@@H](O)[C@H](O[C@H]3OC(CN)=CC[C@H]3N)[C@@H](N)C[C@H]2N)OC[C@]1(C)O [Sisomicin]
E. coli; [3]
  MIC: 1 µg/mL (≈ 2.23 µM)
E. coli; [4]
  MIC: 32 to 128 µg/mL (≈ 71.5 to 286 µM)
E. coli; [5]
  MIC: 0.25 µg/mL (≈ 0.559 µM)
E. coli; [6]
  MIC: 16 µg/mL (≈ 35.8 µM)
E. coli; [7]
  MIC: 8 µg/mL (≈ 17.9 µM)
E. coli; [8]
  MIC: 16 µg/mL (≈ 35.8 µM)
E. coli; [9]
  MIC: 0.25 µg/mL (≈ 0.559 µM)
E. coli; [10]
  MIC: 0.125 µg/mL (≈ 0.279 µM)
[1]; [11]
  MIC: 0.25 µg/mL (≈ 0.559 µM)
[1]; Staphylococcus aureus, MRSA, MRSA AG040, strain 87-26S Gm^S
  MIC: 0.25 µg/mL (≈ 0.559 µM)
[1]; [12]
  MIC: 0.25 µg/mL (≈ 0.559 µM)
[1]; Staphylococcus aureus, MRSA, MRSA AG042, strain 101-06R Gm^R
  MIC: 32 µg/mL (≈ 71.5 µM)
[1]; [13]
  MIC: 32 to 64 µg/mL (≈ 71.5 to 143 µM)
[1]; [14]
  MIC: 8 µg/mL (≈ 17.9 µM)
[1]; [15]
  MIC: 4 to 8 µg/mL (≈ 8.94 to 17.9 µM)
[1]; Staphylococcus aureus, MRSA, MRSA AG046, strain 12-06R Gm^R
  MIC: > 256 µg/mL
[1]; Staphylococcus aureus, MRSA, MRSA AG047, strain 18-06R Gm^R
  MIC: > 256 µg/mL
[1]; Staphylococcus aureus, MRSA, MRSA AG048, strain 20-06R Gm^R
  MIC: > 256 µg/mL
[1]; Staphylococcus aureus, MRSA, MRSA AG049, strain 23-12R Gm^R
  MIC: 8 µg/mL (≈ 17.9 µM)
[1]; Staphylococcus aureus, MRSA, MRSA AG050, strain 31-06R Gm^R
  MIC: 128 to 256 µg/mL (≈ 286 to 572 µM)
[1]; Staphylococcus aureus, MRSA, MRSA AG051, strain 36-06R Gm^R
  MIC: 64 µg/mL (≈ 143 µM)
[1]; Staphylococcus aureus, MRSA, MRSA AG052, strain 53-14I Gm^R
  MIC: 8 µg/mL (≈ 17.9 µM)
[1]; [16]
  MIC: 32 µg/mL (≈ 71.5 µM)

## NC[C@@H]1O[C@H](O[C@H]2[C@@H](O)[C@H](O[C@@H]3[C@@H](O)[C@H](N)C[C@H](N)[C@H]3O[C@H]3O[C@H](CO)[C@@H](O)[C@H](O)[C@H]3N)O[C@@H]2CO)[C@H](N)[C@@H](O)[C@@H]1O [Paromomycin]
E. coli; Escherichia coli, E. coli AG01, clin. isol. (Gm^S), read-out: MIC
  MIC: 16 to 32 µg/mL (≈ 26 to 52 µM)
E. coli; [3]
  MIC: 8 to 16 µg/mL (≈ 13 to 26 µM)
E. coli; [4]
  MIC: 8 to 16 µg/mL (≈ 13 to 26 µM)
E. coli; [5]
  MIC: 2 µg/mL (≈ 3.25 µM)
E. coli; [6]
  MIC: 8 µg/mL (≈ 13 µM)
E. coli; [7]
  MIC: 4 to 8 µg/mL (≈ 6.5 to 13 µM)
E. coli; [8]
  MIC: 8 to 16 µg/mL (≈ 13 to 26 µM)
E. coli; [9]
  MIC: 256 µg/mL (≈ 416 µM)
E. coli; [10]
  MIC: > 256 µg/mL
[1]; MRSA AG040, strain 87-26S Gm^S
  MIC: >256 µg/mL
[1]; MRSA AG046, strain 12-06R Gm^R
  MIC: >256 µg/mL
[1]; MRSA AG047, strain 18-06R Gm^R
  MIC: >256 µg/mL
[1]; MRSA AG048, strain 20-06R Gm^R
  MIC: >256 µg/mL
[1]; MRSA AG049, strain 23-12R Gm^R
  MIC: >256 µg/mL
[1]; MRSA AG050, strain 31-06R Gm^R
  MIC: >256 µg/mL
[1]; MRSA AG051, strain 36-06R Gm^R
  MIC: >256 µg/mL
[1]; MRSA AG052, strain 53-14I Gm^R
  MIC: >256 µg/mL
[1]; Staphylococcus aureus, MRSA
  MIC: > 256 µg/mL
[1]; [11]
  MIC: 2 to 4 µg/mL (≈ 3.25 to 6.5 µM)
[1]; [12]
  MIC: 4 µg/mL (≈ 6.5 µM)
[1]; [13]
  MIC: 4 to 8 µg/mL (≈ 6.5 to 13 µM)
[1]; [14]
  MIC: 2 to 4 µg/mL (≈ 3.25 to 6.5 µM)
[1]; [15]
  MIC: 4 µg/mL (≈ 6.5 µM)
[1]; [16]
  MIC: 2 to 4 µg/mL (≈ 3.25 to 6.5 µM)

## Neomycin
[2]; 0.5 mM aminoglycoside for 24 h, epifluorescence microscopy
  Hair cell count: almost all hair cells (inner and outer) missing
[2]; 0.5 mM, FIG. 1
  inner and outer hair cells missing / lost: > 80%
E. coli; E. coli AG01, clin. isol. (Gm^S)
  MIC: 8 to 16 µg/mL
E. coli; E. coli AG02, clin. isol (Gm^S)
  MIC: 4 µg/mL
E. coli; E. coli AG03, clin. isol (Gm^R)
  MIC: 4 µg/mL
E. coli; E. coli AG06, BM13
  MIC: 1 µg/mL
E. coli; E. coli AG07, BM13/pIP135, resistance mechanism AAC(3)
  MIC: 4 µg/mL
E. coli; E. coli AG08, BM13/pIP055, resistance mechanism ANT(2″)
  MIC: 2 to 4 µg/mL
E. coli; E. coli AG09, AAC(6′)-1B, resistance mechanism AAC(6′)
  MIC: 8 to 32 µg/mL
E. coli; E. coli AG36, HB101/pAT197, resistance mechanism ANT(4′)
  MIC: 32 µg/mL
E. coli; E. coli AG37, HB101/pAG21-1, resistance mechanism APH(3′)
  MIC: >256 µg/mL
Bacterial ribosomes; Table 7, 72 h incubation
  MIC, bacterial ribosomes: 1
[1]; MRSA AG038, strain 70-26S Gm^S
  MIC: 0.5 to 1 µg/mL
[1]; MRSA AG040, strain 87-26S Gm^S
  MIC: 128 µg/mL
[1]; MRSA AG041, strain 98-25S Gm^S
  MIC: 0.5 to 1 µg/mL
[1]; MRSA AG042, strain 101-06R Gm^R
  MIC: 128 µg/mL
[1]; MRSA AG043, strain 01-08R Gm^R
  MIC: 1 to 4 µg/mL
[1]; MRSA AG044, strain 07-12R Gm^R
  MIC: 0.5 to 1 µg/mL
[1]; MRSA AG045, strain 08-12R Gm^R
  MIC: 0.5 to 1 µg/mL
[1]; MRSA AG046, strain 12-06R Gm^R
  MIC: >256 µg/mL
[1]; MRSA AG047, strain 18-06R Gm^R
  MIC: 256 µg/mL
[1]; MRSA AG048, strain 20-06R Gm^R
  MIC: 256 µg/mL
[1]; MRSA AG049, strain 23-12R Gm^R
  MIC: >256 µg/mL
[1]; MRSA AG050, strain 31-06R Gm^R
  MIC: 64 µg/mL
[1]; MRSA AG051, strain 36-06R Gm^R
  MIC: 64 µg/mL
[1]; MRSA AG052, strain 53-14I Gm^R
  MIC: >256 µg/mL
[1]; MRSA AG053, strain 56-06R Gm^R
  MIC: 0.5 to 1 µg/mL
Mitohybrid ribosomes; Table 7, 72 h incubation
  MIC, mitohybrid ribosomes: 32
Cytohybrid ribosomes; Table 7, 72 h incubation
  MIC, cytohybrid ribosomes: 1024

## CC(=O)O.CC(=O)O.CC(=O)O.CC(=O)O.CN1C(=O)OC2C3OC(OC4C(N)CC(N)C(O)C4O)C(N)CC3OC(OC3OC(CO)C(NC(=O)C(O)CCN)C(O)C3O)C21 [ETH 99, 7′-N,6′-O-Carbonyl-4″-N-[(2S)-4-amino-2-hydroxybutyryl]apramycin tetraacetate]
Bacterial ribosomes
  MIC, wild type bacteria: 2.0 to 4.0 µg/mL
Mitohybrid ribosomes
  MIC, bacteria with mitohybrid ribosome: >256.0 µg/mL
Cytohybrid ribosomes
  MIC, bacteria with cytohybrid ribosome: >256.0 µg/mL

## CC(=O)O.CC(=O)O.CC(=O)O.CC(=O)O.CNC1C(OC2OC(CO)C(N)C(O)C2O)OC2CC(NC(=O)C(O)CCN3C(=O)c4ccccc4C3=O)C(OC3C(N)CC(N)C(O)C3O)OC2C1O (stereo not shown) [ETH 103]
Bacterial ribosomes
  MIC, wild type bacteria: 8.0 µg/mL
Mitohybrid ribosomes
  MIC, bacteria with mitohybrid ribosome: >256.0 µg/mL
Cytohybrid ribosomes
  MIC, bacteria with cytohybrid ribosome: >256.0 µg/mL
